For the assay, the system named is Rattus norvegicus. Nature of the assay: Reduction in incidence of 600 mg/kg, sc ciprofloxacin-induced cartilage lesions in vitamin E-enriched diet fed immature Wistar rat after 10 days. The assay is classed as functional, organism-based. More on the design: dose 600 mg/kg; scale not given: the % may be the effect or the level left. As to conditions: at 600 mg/kg.

In the case of VITAMIN E, the Activity amounted to 41%.

Values taken from ChEMBL document CHEMBL1142095, “Diminished ciprofloxacin-induced chondrotoxicity by supplementation with magnesium and vitamin E in immature rats” (Antimicrob Agents Chemother, 2007).
